Assay [1] deals with LPS-induced IL-6 expression in C57/B6 mice. The experiment in a line: LPS-induced acute septic shock model (IL-6 in plasma, hippocampus, cortex). It is filed as in vivo, mouse. The note with it: 1 mg/kg LPS i.p., HAK-2 in parallel, 2 h. The protocol:
A total number of 20 C57/B6 mice at the age of 5 months with an initial body weight of 22 g to 30 g was analyzed in this study. Mice were randomly assigned to 2 groups of control mice (injection of saline or LPS; n = 6 each) and 1 group of LPS-treated mice co-injected with compound HAK-2 (n = 8). Animals were housed at the Experimental Animal Core Facility of the University of Leipzig. The study was approved by the Regierungspräsidium Leipzig, License # TVV 28/07 on November 14, 2007. To induce septic shock and acute inflammation, 14 mice were injected intraperitoneally (i.p.) with 1 mg LPS (Serotyp 055:B5)/kg body weight. Saline injection i.p. was used as control treatment (n = 6). […] Two hours post treatment mice were sacrificed by CO2 inhalation and tissue samples from hippocampus and cortex as well as plasma were prepared as described later.
Mouse brain samples for qRT-PCR were prepared from 6 - 8 animals per group. After removal of the brain, the tissue samples were flushed shortly with ice cold saline and placed briefly on filter paper. Cortex and hippocampus were prepared, weighted and snap frozen in liquid nitrogen. Samples were stored at -80°C until RNA isolation. […]
Total RNA of cultured cells and homogenized mouse brain tissue samples was isolated using RNA isolation kit "NucleoSpin RNA II" from Macherey and Nagel. RNA quantity was measured by spectrophotometrical quantification (NanoDrop 2000, Peqlab, Erlangen, Germany). […] Quantitative real-time PCR was performed with QuantiFast SYBR Green PCR Master mix (Qiagen, Hilden, Germany) using Rotorgene 3000 system (Corbett, Sydney, Australia). […] Data were analyzed by Rotorgene 3000 Software version 6.0 by comparative quantitation. […]
Figure 6 Suppression of LPS-induced IL-6 expression in vivo by compound HAK-2. […] After 2 hours treatment, samples from hippocampus (A), cortex (B) and plasma (C) were prepared and analyzed by qRT-PCR and ELISA, respectively. […] Statistically significant differences between LPS group and LPS + HAK-2 group were calculated using the unpaired t-test (*p < 0.05; **p < 0.01; ***p < 0.001).

In assay [2] the test system is IL-6 mRNA expression in U343 cells. Briefly: OSM-induced IL-6 mRNA expression in U343 cells (qRT-PCR time course). Format: cell-based, human. The note with it: 20 μM compound. The procedure:
(§1) The human glioma cell line U343 [34] was maintained in DMEM containing 10% fetal bovine serum and 60 μg/ml gentamycin (Invitrogen, Darmstadt, Germany) at 37°C in a 10% CO2 atmosphere.
Total RNA of cultured cells and homogenized mouse brain tissue samples was isolated using RNA isolation kit "NucleoSpin RNA II" from Macherey and Nagel. RNA quantity was measured by spectrophotometrical quantification (NanoDrop 2000, Peqlab, Erlangen, Germany). Total RNA (0.5 μg) was transcribed to cDNA using Superscript III and oligo-dT primer (Invitrogen, Darmstadt, Germany). Quantitative real-time PCR was performed with QuantiFast SYBR Green PCR Master mix (Qiagen, Hilden, Germany) using Rotorgene 3000 system (Corbett, Sydney, Australia). Gene expression was normalized to the expression of three reference genes glyceraldehyde 3-phosphate dehydrogenase (GAPDH), glucose-6-phosphate dehydrogenase (G6PDH) and hypoxanthine-guanine phosphoribosyltransferase (HPRT). Primers for PREP (5'-[…]-3'; 5'- […]-3') and IL-6 (5'-AAAGGACGTCACATTGCA-3'; 5'-[…]-3') were designed using the Primer3 Software (http://frodo.wi.mit.edu/). Data were analyzed by Rotorgene 3000 Software version 6.0 by comparative quantitation. The appropriate size of PCR products was confirmed by gel-electrophoresis stained with ethidium bromide.
To analyze the time-course of OSM-induced IL-6 expression, U343 cells were incubated with OSM for different periods of time as indicated in figure 1B. Amounts of IL-6 mRNA and protein were subsequently quantified by qRT-PCR and by ELISA, respectively. […] Significant induction of IL-6 protein was detected in the conditioned medium as early as 3 h post stimulation and reaching a maximum at 24 h.
To reveal whether bioactivity of HAK compounds is based on suppression of IL-6 protein biosynthesis or on interference with IL-6 mRNA expression OSM-treated U343 cells were incubated with 20 μM of compound HAK-2 for different periods of time. […] Therefore, it is very likely that the relevant molecular target of HAK compounds is involved in the OSM-induced signal transduction process not earlier than 6 h after onset of the stimulation.
Figure 4 Time course of OSM-induced IL-6 mRNA expression in U343 cells treated with compound HAK-2. […] U343 cells were stimulated with 100 ng/ml OSM and treated with 0.1% DMSO as solvent control (solid line, black triangle) or 20 μM HAK-2 (dashed line, white triangle). Samples were harvested at time points indicated to extract total RNA. IL-6 mRNA expression was analyzed by qRT-PCR. All data points are presented as mean ± SD, and were obtained from experiments carried out in quadruplicate. Statistical analysis were performed between control and HAK-2 samples from same time point. ns, not significant; ***p < 0.001.
For orientation: Quantitative PCR measures a nucleic acid by following its amplification.

The test system of assay [3] is OSM-stimulated IL-6 secretion from U343 cells. The experiment in a line: OSM-induced IL-6 release from U343 glioma cells (IL-6 ELISA of conditioned medium). Format: cell-based, human. The protocol: as §1
Measurements of IL-6 in conditioned medium and murine plasma samples were done by means of human- or murine-specific IL-6 Cytoset kits (Invitrogen, Darmstadt, Germany) according to manufacturer's protocols.
Using the characterized cell culture model of OSM-induced IL-6 expression, our in-house compound libraries were screened for potent IL-6 expression inhibitors. Human U343 glioma cells were treated with 100 ng/ml OSM for 24 h. The analysis by IL-6 ELISA identified a set of structurally related compounds as potent inhibitors of IL-6 secretion (Table 1). […] HAKs with proline in position P1 are known from the literature as inhibitors of prolyl endopeptidase (PREP), a proline-specific serine protease.
In general terms: An ELISA detects its analyte on a solid surface through an enzyme-linked reagent.

With `C[C@H](NC(=O)OCc1ccccc1)C(=O)N1CCC[C@H]1C(=O)c1nc2ccccc2s1` [HAK-2, Z-Ala-Pro-BTh], in assay [1], the “Reduction of induced IL-6 mRNA in cortex” value worked out at 53%, the “Reduction of induced IL-6 mRNA in hippocampus” value came out at 60% and the “Reduction of plasma level of IL-6 protein vs LPS alone” value is recorded as 55%. In addition, the “Inhibition of OSM-induced IL-6 mRNA expression (time course)” value in assay [2] (100 ng/ml OSM) is recorded as “strong inhibition”. The “Effect on second IL-6 mRNA expression peak” value in assay [2] (100 ng/ml OSM, 6 h post stimulation) was “completely suppresses”. In addition, in assay [2] (1 h post OSM stimulation), the “Effect on first IL-6 mRNA peak” value was “insensitive”. Also, the “Remaining IL-6 expression [% of control]” value in assay [3] (100 ng/ml OSM, 24 h, IL-6 release of vehicle-treated cells set to 100% (n = 2), mean ± SD) is 18.7 ± 3.87 % of control. Further, in assay [3] (OSM-stimulated), the “Effect on OSM-induced IL-6 secretion (in words)” value is given as “significantly reduced”.
